Data published in PubChem BioAssay AID434987 (Southern Research Specialized Biocontainment Screening …, 2010).
The source made the active and inactive calls. No rule for the calls is given here.

Tested on: M. tuberculosis H37Rv growth inhibition with meropenem
Assay: dose response, H37Rv, with and without meropenem (AID 434987);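 also: growth over 7 days at 37 °C before Alamar Blue read on day 9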
[1] = M. tuberculosis H37Rv growth inhibition, measured here: IC50 without meropenem
[2] = M. tuberculosis H37Rv growth inhibition, measured here: IC90 without meropenem
[3] = measured here: IC90 with meropenem

SMILES | IC50 | IC50 [1] | IC90 [2] | IC90 [3]
Cc1cccc(C)c1NC(=O)C1CC2CCC1C2 (stereo not drawn) | > 100 µM (inactive) | > 100 µM | > 100 µM | > 100 µM
O=C1C=C2C=C[C@@H]3CC2(O1)[C@H]1CCCCN31 | 78.1 µM (inactive) | > 100 µM | > 100 µM | > 100 µM
Cc1ccc(C(=O)NCCc2nnc3ccc(SCC(=O)Nc4ccccc4C)nn23)cc1 | > 100 µM (inactive) | > 100 µM | > 100 µM | > 100 µM
Cn1c(=O)[nH]c(=O)c2c1nc(Br)n2CCC(=O)c1ccccc1 | 38.6 µM | > 100 µM | > 100 µM | > 50 µM
C=CCOc1ccc(C2N3CC4(C)CN2CC(CCC)(C3)C4=O)cc1 (stereo not drawn) | > 100 µM (inactive) | > 100 µM | > 100 µM | > 100 µM
C/C(CC(=O)NCc1ccco1)=N\NC(=O)CC#N | 4.68 µM | 43.3 µM | > 100 µM | 17.6 µM
COc1ccc(-c2csc(NC(=O)c3c(C)noc3C)n2)cc1 | 25.9 µM | > 100 µM | > 100 µM | > 100 µM
Cc1ccc(CNC(=O)c2cn(C)c3ccc(S(=O)(=O)N4CCOCC4)cc3c2=O)cc1 | > 50 µM (inactive) | > 100 µM | > 100 µM | > 50 µM
CS/C(N)=N/N=C/c1cc(Br)cc(Br)c1O | 19.7 µM (inactive) | 34.7 µM | > 100 µM | > 100 µM
Cc1cc(C)n(-c2nc3ccccc3c(=O)n2OCC(=O)N(C)C)n1 | 7.74 µM | 79.2 µM | > 100 µM | 23.3 µM
CCC(C)C(NC(N)=O)C(=O)Nc1ccc(OCc2ccccc2)cc1 (stereo not drawn) | > 100 µM (inactive) | > 100 µM | > 100 µM | > 100 µM
CSc1ccc(CCNC(=O)c2cc(C)nn2-c2ccccc2)cc1 | > 100 µM (inactive) | > 100 µM | > 100 µM | > 100 µM
O=C(C1=C[C@H](c2ccc(Br)cc2)C[C@H](OCc2ccc(CO)cc2)O1)N1CCN(Cc2ccc3c(c2)OCO3)CC1 | 50.4 µM (inactive) | > 100 µM | > 100 µM | > 100 µM
COc1c(NC(C)=O)c2ccccc2c2ccccc12 | > 100 µM (inactive) | > 100 µM | > 100 µM | > 100 µM
Cc1ccc(-c2[nH][nH]c(=O)c(=O)c2N=Nc2ccccc2)cc1 | 4.12 µM | 51.7 µM | > 100 µM | 86.2 µM
O=C(Oc1c(-c2ccccc2)c(=O)n2c3c(cccc13)CC2)c1cccc([N+](=O)[O-])c1 | 3.97 µM | 30.5 µM | 85.1 µM | 62.3 µM
Cc1c(-c2ccccc2)cnc2c(C)cccc12 | 59.9 µM (inactive) | 95.6 µM | > 100 µM | > 100 µM
Cc1sc2nc(C(C)Nc3ccccc3N3CCOCC3)[nH]c(=O)c2c1C (stereo not drawn) | > 100 µM (inactive) | > 100 µM | > 100 µM | > 100 µM
CN(C)c1ccc(/C=C/c2nc3ccccc3s2)cc1 | 8.97 µM | > 100 µM | > 100 µM | > 100 µM

SMILES | IC50 | IC50 [1] | IC90 [2] | IC90 [3]
CCOC(=O)c1ccc(-c2ccc(C=O)o2)cc1 | 29.1 µM (inactive) | 44.6 µM | > 100 µM | > 100 µM
CCCCOc1ccccc1NC(=O)c1ccco1 | > 100 µM (inactive) | > 100 µM | > 100 µM | > 100 µM
O=C(N/N=C/c1c(O)n(Cc2ccc(F)cc2)c(=S)[nH]c1=O)c1ccncc1 | 7.75 µM (inactive) | 11.5 µM | 12.9 µM | 9.8 µM
O=C(Nc1ccc(Br)cc1)c1cccnc1N1CCCCC1 | > 100 µM (inactive) | > 100 µM | > 100 µM | > 100 µM
Cc1cccc(CSc2nnc(C)c(=O)n2N)c1 | 5.94 µM (inactive) | 12.4 µM | 20.9 µM | 9.9 µM
Cc1cc(NC(=O)COc2nnc(-c3ccccc3)c3ccccc23)no1 | 14 µM | > 100 µM | > 100 µM | > 25 µM
CCc1ccc2nc(/N=C(\N)NC(=O)c3ccccc3)nc(C)c2c1 | 1.02 µM | 22.4 µM | > 50 µM | > 100 µM
CCOC(=O)c1c(C)[nH]c(N=Nc2ccccc2Cl)c1C | 32.4 µM (inactive) | 63.1 µM | > 100 µM | > 100 µM
CN=C(Nc1cc(Cl)ccc1Cl)SC1CC(=O)N(c2ccc(C(=O)OC)cc2)C1=O (stereo not drawn) | > 100 µM (inactive) | > 100 µM | > 100 µM | > 100 µM
COc1cc(/C=C/C(=O)NC(C)(C)C)ccc1OCc1ccccc1 | > 100 µM (inactive) | > 100 µM | > 100 µM | > 100 µM
O=C(COc1cccc2cccnc12)N/N=C/c1ccc(O)cc1 | 27 µM | > 100 µM | > 100 µM | > 50 µM
Cc1cc(C)c(C)c(S(=O)(=O)N2C(=S)NC(=O)C2C(C)C)c1C (stereo not drawn) | 10.1 µM | 38.5 µM | > 100 µM | > 100 µM
CCCOc1ccc(C(=O)CCN2CCCCC2)cc1 | 13.4 µM | 54 µM | 77.1 µM | 36.4 µM
COc1cccc(-n2c([S-])c(C(=O)Nc3ccc(S(=O)(=O)N4CCOCC4)cc3)[n+]3cc(C(N)=O)ccc23)c1 | > 100 µM (inactive) | > 100 µM | > 100 µM | > 100 µM
Cc1cc(=O)[nH]c(N/N=C/c2c(O)n(-c3ccccc3)c(=O)c3ccccc23)n1 | 1.87 µM | 7.61 µM | > 100 µM | 13.6 µM
CN(C)CC[C@@H](c1ccc(Br)cc1)c1ccccn1 | > 100 µM (inactive) | > 100 µM | > 100 µM | > 100 µM
CCOc1cc(C(=O)N2CCC(CC3CC(c4ccccc4)=NO3)(C(=O)NCc3ccc(OC)cc3)CC2)cc(OCC)c1OCC (stereo not drawn) | > 100 µM (inactive) | > 100 µM | > 100 µM | > 100 µM
C[C@@H]1CC=C[C@H]2[C@H]1C(=O)N(Cc1ccccc1)[C@H]2c1ccc(/C=C/c2ccccc2)cc1F | > 100 µM (inactive) | > 100 µM | > 100 µM | > 100 µM
Cc1cc(Br)ccc1NC(=O)c1ccccc1-c1ccccc1 | 14.1 µM | > 100 µM | > 100 µM | > 100 µM

SMILES | IC50 | IC50 [1] | IC90 [2] | IC90 [3]
COc1ccc(-c2csc(Nc3ccc(C)cn3)n2)cc1OC | 44.3 µM (inactive) | > 100 µM | > 100 µM | > 100 µM
Cc1ccc(C)c(SCC(=O)OCC(=O)N2CC(C)OC(C)C2)c1 (stereo not drawn) | 25.5 µM | > 100 µM | > 100 µM | > 100 µM
O=C(CSCC(=O)Nc1ccccc1)N/N=C/c1c(O)ccc2ccccc12 | 31.9 µM | > 100 µM | > 100 µM | > 100 µM
Cc1ccc(/C=N/NC(=O)c2cccs2)s1 | > 100 µM (inactive) | > 100 µM | > 100 µM | > 100 µM
Cc1ccc(Cn2c(C(C)Nc3nc(-c4ccc(Cl)cc4)cs3)nc3cc(C(=O)NCCCO)ccc32)cc1 (stereo not drawn) | 73.5 µM (inactive) | 67.3 µM | 86.4 µM | > 100 µM
Cc1ccc(NC(=O)CSc2nnc([C@@H]3CCCN3C(=O)OC(C)(C)C)o2)c(C)c1 | 78.5 µM (inactive) | 86.5 µM | > 100 µM | > 100 µM
CC(C)CN(C(=O)CN1CCN(S(=O)(=O)c2ccccc2)CC1)c1c(N)n(CC(C)C)c(=O)[nH]c1=O | > 100 µM (inactive) | > 100 µM | > 100 µM | > 100 µM
CCN(CC)S(=O)(=O)c1ccc(N/N=C(\C)c2ccc(OC)cc2O)nc1 | 1.07 µM | 5.71 µM | 11.3 µM | 10.4 µM
C=C(C)COc1ccc(-c2nc(N)ncc2Oc2ccc(OC)cc2)c(O)c1 | > 100 µM (inactive) | > 100 µM | > 100 µM | > 100 µM
O=C(Oc1c(-c2ccccc2)c(=O)n2c3c(cccc13)CC2)c1ccc(F)cc1 | 6.19 µM | 54.2 µM | > 100 µM | 34 µM
CCCn1nc(NC(=O)c2ccco2)c2cc3cc(C)ccc3nc21 | > 100 µM (inactive) | > 100 µM | > 100 µM | > 100 µM
Cc1nc(S/C(=C\c2ccc(OCc3ccccc3Cl)cc2)C(=O)O)n[nH]1 | > 100 µM (inactive) | > 100 µM | > 100 µM | > 100 µM
Cc1ccc(NC(=S)Nc2ncccc2C)c(C)c1 | 46.2 µM (inactive) | 97.1 µM | > 100 µM | > 100 µM
CCOC(=O)/C=C/c1ccc2c(c1)S(=O)(=O)N(Cc1ccc(OC)cc1)[C@H]2CC(=O)OCC | > 100 µM (inactive) | > 100 µM | > 100 µM | > 100 µM
Cc1nn(Cc2ccc(Cl)cc2)c(C)c1NC(=O)CSc1nc2c(c(C(F)(F)F)n1)CCc1ccccc1-2 | > 100 µM (inactive) | > 100 µM | > 100 µM | > 100 µM
Cc1ccc(CNC(=O)c2ccccc2NC(=O)CSc2nnnn2C)cc1 | 36.6 µM (inactive) | 81.1 µM | > 100 µM | > 100 µM
O=C(Nc1ccccc1Br)c1cccc2ccccc12 | > 100 µM (inactive) | > 100 µM | > 100 µM | > 100 µM
Cc1oc(C(C)(C)C)cc1C(=O)Nc1ccc2c(c1)OCCO2 | > 100 µM (inactive) | > 100 µM | > 100 µM | > 100 µM
CC12CCC(C/C1=N/NC(=O)Nc1ccccc1)C2(C)C (stereo not drawn) | 14.9 µM | > 100 µM | > 100 µM | > 50 µM
